Measurements published in ChEMBL document CHEMBL1201862, “PubChem BioAssay data set” (2004).
The source made the active and inactive calls. For most assays here, no stated cut-off is given here; in the data, actives have a measured EC50 and inactives only a lower limit.

Experiments:
Streptococcus = assay: GAS UMAA2166 growth inhibition – luminescence, BacTiterGlo, counter-screen for streptokinase expression inhibitor project, dose response (AID 1915); assay type: functional, organism-based;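 further: potency for reduction of bacterial viability or growth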
[1] = system: Streptococcus sp. 'group A'; assay: Streptococcus pyogenes SK(-)GAS viability under kanamycin – luminescence, BacTiterGlo, confirmation, counter-screen for streptokinase expression inhibitor project, dose response (AID 1900); assay type: functional, organism-based
[2] = Luminescence Cell-Based Dose Response HTS to Identify Inhibitors of 5'UTR Stem-Loop Driven Prion Protein mRNA Translation in H4 Neuroglioblastoma Cells. [Related pubchem assays: 1827 (Project Summary), 1813 (Primary HTS)]; assay type: functional
[3] = target: T1, Mannose-6-phosphate isomerase (Homo sapiens, UniProt P34949); assay: MPI inhibition at elevated mannose 6-phosphate – biochemical, fluorescence intensity, high mannose 6-phosphate, primary screen (AID 1220)
T1 sequence (P34949 whole entry): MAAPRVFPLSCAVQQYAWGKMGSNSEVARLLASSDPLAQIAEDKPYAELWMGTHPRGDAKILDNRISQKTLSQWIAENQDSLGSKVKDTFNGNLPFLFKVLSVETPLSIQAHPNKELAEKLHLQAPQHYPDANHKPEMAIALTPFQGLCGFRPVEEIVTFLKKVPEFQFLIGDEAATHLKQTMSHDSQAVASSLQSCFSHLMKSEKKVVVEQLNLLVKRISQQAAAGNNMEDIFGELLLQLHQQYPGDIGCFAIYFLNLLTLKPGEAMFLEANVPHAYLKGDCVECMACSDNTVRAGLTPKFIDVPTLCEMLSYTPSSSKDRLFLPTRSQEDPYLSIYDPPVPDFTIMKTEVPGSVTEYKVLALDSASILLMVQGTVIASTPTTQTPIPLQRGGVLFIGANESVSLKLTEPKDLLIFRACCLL

[4] = Luminescence-based counterscreen assay for KLF5 inhibitors: dose response cell-based high throughput screening assay to identify cytotoxic compounds using the IEC-6 intestinal epithelial cell line. [Related pubchem assays: 1700 (Primary screen.), 1834 (Confirmation screen.), 1858 (Summary AID.), 1905 (Counterscreen.)]; assay type: functional
BJ [5] = assay: growth inhibition of engineered Ras-driven BJ cells – cell-based, alamar blue fluorescence, cherrypicked samples, dose response (AID 2631); assay type: functional; conditions: Homo sapiens;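 further: confirmatory dose-response assay in RAS-dependent BJ fibroblasts engineered with TERT, LT and ST, with cytotoxicity read by fluorescence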
[6] = target: T2, Replicative DNA helicase DnaB (Mycobacterium tuberculosis, UniProt P9WMR3); assay: DnaB intein splicing inhibitors, dose response, biochemical, cell-free fluorescence (AID 449749); assay type: functional
T2 sequence (P9WMR3 whole entry): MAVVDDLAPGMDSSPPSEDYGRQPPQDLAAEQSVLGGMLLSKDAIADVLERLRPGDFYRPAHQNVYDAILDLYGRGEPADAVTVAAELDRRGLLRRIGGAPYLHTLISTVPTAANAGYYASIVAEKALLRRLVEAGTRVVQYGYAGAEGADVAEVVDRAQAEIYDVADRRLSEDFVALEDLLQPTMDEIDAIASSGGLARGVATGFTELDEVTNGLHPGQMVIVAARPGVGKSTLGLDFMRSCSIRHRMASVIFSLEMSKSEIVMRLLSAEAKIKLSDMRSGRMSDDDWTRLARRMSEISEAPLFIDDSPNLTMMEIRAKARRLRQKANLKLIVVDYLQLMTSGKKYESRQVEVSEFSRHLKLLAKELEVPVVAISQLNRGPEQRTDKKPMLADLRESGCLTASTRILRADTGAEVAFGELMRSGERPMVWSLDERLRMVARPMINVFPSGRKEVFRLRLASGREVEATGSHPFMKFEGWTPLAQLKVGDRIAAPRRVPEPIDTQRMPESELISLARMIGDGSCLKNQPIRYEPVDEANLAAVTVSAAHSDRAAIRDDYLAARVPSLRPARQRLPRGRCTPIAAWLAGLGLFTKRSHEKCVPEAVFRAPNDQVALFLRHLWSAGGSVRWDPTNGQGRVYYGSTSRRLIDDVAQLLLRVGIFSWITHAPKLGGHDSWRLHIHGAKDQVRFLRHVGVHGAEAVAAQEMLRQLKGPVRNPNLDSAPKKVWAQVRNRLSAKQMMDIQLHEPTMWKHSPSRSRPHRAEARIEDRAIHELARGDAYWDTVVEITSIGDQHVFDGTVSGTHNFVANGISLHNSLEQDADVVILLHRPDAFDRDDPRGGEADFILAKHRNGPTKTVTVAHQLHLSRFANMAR

Streptokinase A = target: T3, Streptokinase A (Streptococcus pyogenes serotype M1, UniProt P10520); assay: viability-normalized secreted streptokinase activity reduction – plasminogen activation absorbance, OD405, dose response (AID 1914); assay type: functional, Streptococcus pyogenes M1 GAS;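 further: secreted streptokinase activity via plasminogen activation per viability signal from cell pellet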
T3 sequence (P10520 whole entry): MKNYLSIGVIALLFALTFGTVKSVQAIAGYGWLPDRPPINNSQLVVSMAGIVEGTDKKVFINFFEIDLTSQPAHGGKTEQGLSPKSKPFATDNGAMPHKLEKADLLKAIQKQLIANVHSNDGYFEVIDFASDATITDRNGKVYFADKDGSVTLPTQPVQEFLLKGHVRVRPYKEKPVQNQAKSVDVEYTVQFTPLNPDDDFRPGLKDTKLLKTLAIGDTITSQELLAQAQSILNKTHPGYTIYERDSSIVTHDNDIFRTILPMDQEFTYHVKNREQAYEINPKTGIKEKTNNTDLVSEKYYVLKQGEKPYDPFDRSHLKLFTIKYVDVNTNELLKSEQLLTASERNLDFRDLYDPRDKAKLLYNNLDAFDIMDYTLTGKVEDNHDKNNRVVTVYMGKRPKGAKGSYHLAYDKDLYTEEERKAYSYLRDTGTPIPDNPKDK

Protein RecA = target: T4, Protein RecA (Mycobacterium tuberculosis, UniProt P9WHJ3); assay: Fluorescence Cell-Free Homogeneous Dose Retest to Identify Inhibitors of RecA-Intein Splicing Activity. [Related pubchem assays (depositor defined):AID2097, AID2223, AID489010, AID492950]; assay type: functional
T4 sequence (P9WHJ3 whole entry): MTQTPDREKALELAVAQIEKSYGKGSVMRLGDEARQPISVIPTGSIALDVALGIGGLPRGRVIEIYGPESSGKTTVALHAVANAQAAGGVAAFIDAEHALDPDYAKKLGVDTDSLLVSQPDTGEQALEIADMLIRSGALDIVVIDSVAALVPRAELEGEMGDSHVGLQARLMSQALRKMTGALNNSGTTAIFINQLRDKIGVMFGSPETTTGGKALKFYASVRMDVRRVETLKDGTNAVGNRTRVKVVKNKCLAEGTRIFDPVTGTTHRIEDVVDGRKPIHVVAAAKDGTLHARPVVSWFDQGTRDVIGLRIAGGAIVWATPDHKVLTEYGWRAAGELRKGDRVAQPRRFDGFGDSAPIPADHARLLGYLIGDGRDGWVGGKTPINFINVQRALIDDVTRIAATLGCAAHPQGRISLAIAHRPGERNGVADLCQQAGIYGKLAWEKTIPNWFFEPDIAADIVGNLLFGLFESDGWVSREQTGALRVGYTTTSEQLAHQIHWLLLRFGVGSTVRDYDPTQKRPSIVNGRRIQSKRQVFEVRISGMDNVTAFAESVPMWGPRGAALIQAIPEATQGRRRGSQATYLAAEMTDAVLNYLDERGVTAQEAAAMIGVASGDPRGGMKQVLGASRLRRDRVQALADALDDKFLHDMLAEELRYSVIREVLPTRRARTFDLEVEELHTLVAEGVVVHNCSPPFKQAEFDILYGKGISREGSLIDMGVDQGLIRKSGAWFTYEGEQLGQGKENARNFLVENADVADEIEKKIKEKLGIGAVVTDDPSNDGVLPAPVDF

[7] = alpha-synuclein stem-loop luciferase translation blockers – H4 neuroglioma cells, luminescence, confirmation (AID 1988); assay type: functional, cell-based
[8] = viability of HCT116 lacking mutant beta-catenin – cell-based, human colon tumor, dose response (AID 1045); assay type: functional;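 further: HCT116 colon tumor cells with beta catenin knocked out; cells exposed to compound for 60 hours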
[9] = fluconazole-exposed Candida albicans growth modulators – fluorescence, retest, confirmation (AID 2467); assay type: functional, cell-based
[10] = viability of PTEN-deleted HCT116 cells – cell-based, HCT116 PTEN knockout, dose response (AID 1047); assay type: functional;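 further: HCT116 colon tumor cells with PTEN knocked out; cells exposed to compound for 60 hours before readout; potency for loss of cell viability measured by luminescence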
[11] = NIH-3T3 fibroblast cytotoxicity, dose response, cytotoxicity control, cell-based, fluorescence, Alamar Blue, secondary assay (AID 2327); assay type: functional;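 further: NIH-3T3 mouse fibroblasts cultured with fluconazole at 8 µg/mL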
INS1 = assay: INS-1E survival protection against cytokine death – cell-based, luminescence, retest, dose response (AID 449756); assay type: functional; conditions: Rattus norvegicus;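 further: cell death triggered by IL-1 beta plus TNF-alpha plus IFN-gamma mixture; protective hits raise ATP signal compared with cytokine alone wells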
[12] = A549 cell cytotoxicity, dose response, cytotoxicity control, plate reader, cherry-pick, antagonist series (AID 743412); assay type: functional, cell-based
[13] = blockers of bursicon-stimulated LGR2 cAMP reporter – cell-based, HEK293, CRE-luciferase reporter, cherry pick, set 2, dose response (AID 743343); assay type: functional;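 further: transfected cells were stimulated with diluted bursicon conditioned medium after compound addition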
[14] = luciferase reporter signal suppression in cells – H4 neuroglioma cells, luminescence, dose response (AID 1990); assay type: functional, cell-based
[15] = toxicity toward HepG2 liver cells – cell-based, plate reader, cherry-pick, antagonist series, cytotoxicity control, dose response (AID 743416); assay type: functional
BJ [16] = assay: BJ-TERT-LT-ST fibroblast viability loss – cell-based, RAS-independent, luminescence, dose response (AID 1935); assay type: functional; conditions: Homo sapiens;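 further: BJ fibroblasts immortalized with TERT plus LT and ST oncogenes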
[17] = viability loss in HEK293 cells – cell-based, plate reader, cherry-picked samples, cytotoxicity control, dose response (AID 743446); assay type: functional
BJ [18] = assay: BJ-TERT fibroblast viability loss – cell-based, RAS-independent, luminescence, dose response (AID 1933); assay type: functional; conditions: Homo sapiens
[19] = DRD fibroblast viability loss – cell-based, non-viral oncogenic, luminescence, dose response (AID 1934); assay type: functional; conditions: Homo sapiens
[20] = Luminescence Cell-Based Dose Confirmation HTS to Identify Inhibitors of Platelet Dense Granule Release. [Related pubchem assays: 1663 (Primary HTS), 1678 (Summary of Project)]; assay type: functional
BJ [21] = assay: cells; assay type: functional, cell-based; conditions: Homo sapiens
[22] = target: Luciferin 4-monooxygenase (Photinus pyralis, UniProt P08659); assay: inhibition of purified Photinus pyralis luciferase – biochemical, luminescence, dose response (AID 1891)
Luciferin 4-monooxygenase, sequence (P08659 whole entry): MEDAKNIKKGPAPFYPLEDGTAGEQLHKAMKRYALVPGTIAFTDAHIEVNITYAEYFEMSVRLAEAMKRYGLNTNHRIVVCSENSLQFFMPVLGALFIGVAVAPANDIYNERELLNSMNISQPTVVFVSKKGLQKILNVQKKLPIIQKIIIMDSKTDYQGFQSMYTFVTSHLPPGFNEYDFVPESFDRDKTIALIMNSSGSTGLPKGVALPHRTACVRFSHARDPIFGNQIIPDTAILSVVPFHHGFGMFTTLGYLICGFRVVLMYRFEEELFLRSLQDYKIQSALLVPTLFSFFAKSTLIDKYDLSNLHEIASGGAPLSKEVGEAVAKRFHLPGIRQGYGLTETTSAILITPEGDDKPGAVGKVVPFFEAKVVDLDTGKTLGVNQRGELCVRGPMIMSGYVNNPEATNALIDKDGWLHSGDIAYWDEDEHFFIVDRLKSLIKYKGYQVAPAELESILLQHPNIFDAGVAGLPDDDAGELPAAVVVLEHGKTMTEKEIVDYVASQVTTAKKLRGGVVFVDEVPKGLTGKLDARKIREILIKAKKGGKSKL

[23] = blockade of melanocortin 4 receptor signaling – cell-based, plate reader, cherry pick, counter-screen for LGR2 antagonist project, dose response (AID 743444); assay type: functional;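 further: transfected HEK 293 cells stimulated with alpha-MSH peptide; potency of inhibitors of the alpha-MSH evoked signal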

C/N=C1\C(=O)c2ccccc2C(O)=C1N(C(C)=O)c1ccc(Br)cc1
active: EC50 [1] 6.44 µM | EC50 [2] 11.4 µM | IC50 [4] 5.7 µM | EC50 (BJ [5]) 2.38 µM | AC50 [6] 11.3 µM | EC50 (Streptokinase A) 23.9 µM | EC50 (Protein RecA) 0.795 µM | EC50 [7] 8.7 µM | EC50 [8] 0.594 µM | EC50 [9] 0.242 µM | EC50 [10] 0.688 µM | AC50 (INS1) 0.548 µM
> 150 µM (not active): EC50 (Streptococcus)
> 50 µM (not active): IC50 [3]
inconclusive: EC50 [11] 3.59 µM

CN(C)c1ccc(Nc2nc(N)c3ccccc3n2)cc1
inconclusive: EC50 [14] > 60 µM | EC50 (BJ [16]) > 150 µM | EC50 [7] 10.1 µM
active: AC50 [12] 23.7 µM | AC50 [13] 1.57 µM | AC50 [15] 22.6 µM | AC50 [17] 24.5 µM | EC50 (BJ [18]) 10.6 µM | EC50 [19] 11.8 µM | EC50 [20] 0.234 µM | EC50 (BJ [21]) 12.6 µM | EC50 [22] 1.37 µM | AC50 [23] 1.89 µM
19.1 µM (not active): IC50 [4]
